Tests used:
[1] = Solute binding efficiency of nanospheres (HPLC); format: physicochemical
Experimental: The concentrations of the solutes were assayed by high-performance liquid chromatography (HPLC) using a Waters 2695 HPLC system equipped with UV/vis detector (Waters 2487, Dual 1 Absorbance Detector). Chromatographic separations were achieved using a RP-C18 column (Perkin-Elmer Brownlee Analytical C-18 column, 33 mm×4.6 mm) at 25° C. […] The mobile phase was delivered at a flow rate of 1 mL/min. […] Standard calibration samples were prepared at concentrations ranging from 1 to 50 μg/mL for all solutes. […] In addition, the specificity was determined by comparing the results obtained in the analysis of placebo supernatant, containing only nanospheres, with those obtained in the analysis of all standard solutions of the solutes and no interference from nanospheres was observed. To determine the solute binding efficiency, a predetermined aliquot of the purified nanosphere-solute complex suspension was withdrawn and freeze-dried, and the dry residue was accurately weighted before thoroughly dissolving in the extraction solvent. […] Solutes complexation by the nanospheres was characterized by the following ratio: [formula] Solutions of each solute in propylene glycol (PG) were prepared by stirring an excess of the molecule in PG at room temperature for 24 h. The samples were filtered through 0.22%μm PVDF syringe filters (Millipore, Bedford, Mass.), and the filtrates were used for all subsequent characterizations and experiments. For passive permeation experiments, the equal concentration (confirmed using RP-HPLC) of all solutes in both PG and nanospheres was achieved by subsequent dilution of either PG-solute solution with PG or NSP-solute formulation with PBS.

[2] = Dye penetration into skin layers, fluorescent microscopy of cryosectioned skin after passive permeation
Experimental: Human skin: The full thickness dermatomed (˜500 μm) human skin derived from the abdominal regions of female Caucasian cadavers were obtained from AlloSource (Englewood, Colo.) and stored at −80° C. Just before each experiment, the skin was allowed to thaw to room temperature and then used immediately for in vitro transport studies.
The receptor compartments were filled with 0.155 M phosphate buffered saline (pH 7.4, 5.1 mL), which was stirred at 600 rpm. The fluid in each receptor compartment was maintained at 37±0.5° C. by the use of a thermostatic water pump (Haake DC10, Karlsruhe, Germany) that circulated water through the jacket surrounding each main chamber. […] The skins were initially left in the Franz cells for 1 h in order to facilitate hydration of the membranes.
In all experiments, the donor compartment of the sampling port of each Franz cell was covered with a taught layer of Parafilm®, and the whole set up was roofed with aluminum foil to prevent the dye bleaching. Each permeation experiment was conducted in sextuplicate or quadruplicate (in case of time-dependency experiments).
At the end of the permeation experiment, the excess formulation was removed from the skin surface, skin sections were detached from the diffusion cells, washed three times with PBS, and dried gently with delicate task wipers (Kimwipes). The skins were frozen at −20° C., and 0.2×0.5 cm piece from the treated area was cut out and imbedded in optimal cutting temperature compound (OCT). A cryostat (Leica Cryostat CM 3050S, Wetzlar, Germany) was used to prepare the cross-section of full skin perpendicular to the skin surface. Nine to twelve vertical sections with a thickness of 20 μm each were obtained and stored at −4° C. till analyzed microscopically.
Fluorescent microscopy. Skin sections were subjected to both fluorescent and phase-contrast microscopy using Olympus CK40 microscope equipped with a UV source and filters for fluorescent measurement. Image capture and analysis were carried out using Olympus Microsuite™ B35V program. […] Images were recorded setting the camera integration time of 500 ms. The same parameters were used for imaging all samples and no corrections for the background fluorescence were made.
Quantitative analysis of dye penetration into skin was obtained by calculating pixel intensities from fluorescence measurements of skin sections. Image analysis was carried out for the epidermis (EP; consisting of stratum corneum and the viable epidermis), superficial dermis (SD) and lower dermis (LD) as schematically represented in FIG. 5. The superficial dermis is defined as the region measuring around 100 μm below the epidermis and the lower dermis is the remaining portion of the dermis below the superficial dermis.
H&E staining of the skin section (FIG. 5) was used to define the above layers for which quantitative analysis of dyes penetration was carried out.

Row | SMILES | final concentration of solutes in nanospheres solutions [1] | change in dye penetration from EP to LD [2] | decrease of dye penetration from EP into the dermis [2] | decrease of fluorescence intensities from EP to LD ([2]; 24 hrs, NSP-dye formulations) | PE (penetration effect), fluorescence in epidermis ([2]; female, human, 24 h, pH 7.4)
1 | COc1cc(/C=C/C(=O)CC(=O)/C=C/c2ccc(O)c(OC)c2)ccc1O [curcumin] | 190 µg/mL |  |  |  | 
2 | CCCCCCCCCCCC(=O)Nc1ccc2c(c1)C(=O)OC21c2ccc(O)cc2Oc2cc(O)ccc21 [DAF, 5-Dodecanoylaminofluorescein] | 180 µg/mL | increase | about two and a half fold |  | 
3 | CCN(CC)c1ccc2nc3c4ccccc4c(=O)cc-3oc2c1 [NR, Nile Red] | 200 µg/mL |  | about five fold | 2.5 fold | 48.6±1.3 ABU
